# Laboratory results taken from patent publication US20090023684A1, “FLUID FOR PERITONEAL DIALYSIS” (priority 2005, published 2009).
# Assay: Body fluid removability of DF using dialysis tube (Experiment 2)
# Settings: similar experiment, compared with the CNN results; data omitted
# Method: Experiments, examining the effects of a cyclic tetrasaccharide on the body fluid removability of DF, were carried out using dialysis tube as follows:
# According to the compositions shown in Table 2, DFs comprising glucose or CNN are prepared, respectively. Into a dialysis tube (Molecular weight cut off: 15,000 daltons; diameter: 16 mm; length: 70 mm), 1.5 milliliters each of the DF was poured and sealed using a closer, and then put into one liter of a dialyzing solution, prepared by admixed sodium chloride and dextran (Molecular weight: 60,000 to 90,000 daltons; commercialized by Wako Pure Chemical Industries Ltd., Osaka, Japan) with purified water to give concentrations of 9 g/L and 6 g/L, respectively, for dialysis. The fluid volumes in the dialysis tube at one to 14 hours after the start of dialysis were examined by measuring the weight of the tube. In the experiment, three dialysis tubes were used for a kind of DF. The changes of fluid volumes in the dialysis tubes were measured by calculating the average of the results of three tubes expressed as relative values using each fluid volume at the start of dialysis as 100.
smiles,measurement,value
"OC[C@H]1O[C@@H]2OC[C@H]3O[C@H](O[C@H]4[C@H](O)[C@@H](O)[C@@H](OC[C@H]5O[C@H](O[C@H]1[C@H](O)[C@H]2O)[C@H](O)[C@@H](O)[C@@H]5O)O[C@@H]4CO)[C@H](O)[C@@H](O)[C@@H]3O [CMM, cyclomaltosylmaltose]",Fluid volume increase in dialysis tube with CMM used instead of CNN in Table 2,almost the same results
